Measurements from the supplement of paper PMC4862054.
“And” between values parts separate entries of the source, which are not always exact repeats. Equal values may be shown once.

Legend:
Details in all cases: incubation time: 72 h
[1] = system: BT-474; experiment: normalised viability (% of control), CellTiter-Blue; higher = more viable cells (about 100 = DMSO control)
How it was run: (§1)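 After 72 h on compound-loaded 384-well plates, breast cancer cell lines received 2.5 µl CellTiter-Blue reagent for 2 h at 37 °C. Fluorescence at 560/590 nm was scaled per plate so that vehicle was 100 and a positive kill control was 0. The value stands for normalised viability at a single listed concentration of the series.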

[2] = system: BT-549; experiment: as above
How it was run: as §1

[3] = system: CAL-120; experiment: as above
How it was run: as §1

[4] = system: CAL-148; experiment: as above
How it was run: as §1

[5] = system: CAL-51; experiment: as above
How it was run: as §1

[6] = system: CAL-85-1; experiment: as above
How it was run: as §1

[7] = system: DU-4475; experiment: as above
How it was run: as §1

[8] = system: HCC1143; experiment: as above
How it was run: as §1

[9] = system: HCC1599; experiment: as above
How it was run: as §1

[10] = system: HCC1937; experiment: as above
How it was run: as §1

[11] = system: HDQ-P1; experiment: as above
How it was run: as §1

[12] = system: Hs578T; experiment: as above
How it was run: as §1

[13] = system: MDA-MB-231; experiment: as above
How it was run: as §1

[14] = system: MDA-MB-436; experiment: as above
How it was run: as §1

[15] = system: MDA-MB-453; experiment: as above
How it was run: as §1

[16] = system: MDA-MB-468; experiment: as above
How it was run: as §1

[17] = system: MFM-223; experiment: as above
How it was run: as §1

[18] = system: SK-BR-3; experiment: as above
How it was run: as §1

[19] = system: BT-474; experiment: normalised viability (% of control), CellTiter-Blue; higher = more viable cells (100 = DMSO, 0 = benzethonium chloride kill control)
Method: (§2)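 DSRT, CellTiter-Blue viability, 72 h incubation. Signal is normalised to DMSO and benzethonium chloride controls. Value is the normalised response at dose 1.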

[20] = system: CAL-85-1; experiment: as above
Method: as §2

[21] = system: MDA-MB-468; experiment: drug sensitivity score (DSS), CellTiter-Blue viability (DSS (AUC-based score)); higher = stronger viability inhibition; extreme values may be limits of the assay
How it was run: (§3)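 The drug sensitivity score was derived from the area under a fitted dose-response curve. To obtain the curves, breast cancer cells (20 µl suspension) were plated into 384-well plates with compound at 5 or 9 concentrations and kept for 72 h. Viability was measured by CellTiter-Blue fluorescence at 560/590 nm, with each plate normalised to 0.1 % DMSO and a positive kill control.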

[22] = system: CAL-148; experiment: as above
How it was run: as §3

Nc1ncn([C@H]2C[C@H](O)[C@@H](CO)O2)c(=O)n1 [Decitabine]
Details	normalised viability
[1], 10 nM	109% and 104%
[1], 1000 nM	89.4% and 86.7%
[1], 10000 nM	95.1% and 79.7%
[2], 10 nM	94.6% and 101%
[2], 1000 nM	81.7% and 89.3%
[2], 10000 nM	57.7% and 65.1%
[3], 10 nM	88.1% and 89.4%
[3], 1000 nM	85.4% and 89%
[3], 10000 nM	58.3% and 62.3%
[4], 3 nM	92.8% and 76.2%
[4], 30 nM	91.4% and 85.8%
[4], 100 nM	86.2% and 96.3%
[5], 3 nM	116% and 108%
[5], 30 nM	117% and 101%
[5], 100 nM	101% and 96.8%
[6], 3 nM	91.9% and 103%
[6], 30 nM	83.4% and 91.2%
[6], 100 nM	93.6% and 93.9%
[7], 3 nM	110% and 98.7%
[7], 30 nM	81.5% and 97.7%
[7], 100 nM	86.9% and 96.8%
[8], 10 nM	82.7% and 80.8%
[8], 1000 nM	68.5% and 78.8%
[8], 10000 nM	56% and 59.8%
[9], 10 nM	112% and 107%
[9], 10000 nM	82% and 106%
[10], 10 nM	120% and 99%
[10], 1000 nM	77.2% and 76.6%
[10], 10000 nM	69.2% and 62.8%
[11], 30 nM	93% and 96.6%
[11], 100 nM	96.1% and 92%
[12], 10 nM	103% and 112%
[12], 1000 nM	92.5% and 114%
[12], 10000 nM	83.6% and 93.2%
[13], 10 nM	86.9% and 92.8%
[13], 1000 nM	74% and 92.3%
[13], 10000 nM	69.8% and 71.6%
[14], 10 nM	85% and 75%
[14], 1000 nM	69.6% and 68.2%
[14], 10000 nM	70.5% and 71.4%
[15], 3 nM	107% and 118%
[16], 10 nM	109% and 102%
[16], 1000 nM	28.7% and 29.4%
[16], 10000 nM	27% and 29.1%
[17], 10 nM	80.2% and 104%
[17], 1000 nM	84.7% and 102%
[17], 10000 nM	90.1% and 98.6%
[18], 10 nM	84.5% and 98.1%
[18], 1000 nM	90.2% and 88.1%
[18], 10000 nM	69.1% and 74.5%
[19], 1 nM	98.4% and 79.8%
[20], 1 nM	81.4% and 95.5%

Details	drug sensitivity score
[21]	21.5 and 21.6

Nc1ccccc1NC(=O)c1ccc(CNC(=O)OCc2cccnc2)cc1 [Entinostat]
Details	normalised viability [%]
[1], 10 nM	108
[1], 1000 nM	97
[1], 10000 nM	31.9
[2], 10 nM	110
[2], 1000 nM	102
[2], 10000 nM	61.4
[3], 10 nM	90.1
[3], 1000 nM	57.9
[3], 10000 nM	30.8
[4], 3 nM	85.4
[4], 30 nM	84.9
[4], 100 nM	86.7
[5], 3 nM	116
[5], 30 nM	106
[5], 100 nM	109
[6], 3 nM	98.1
[6], 30 nM	100
[6], 100 nM	99.6
[7], 3 nM	117
[7], 30 nM	117
[7], 100 nM	105
[8], 10 nM	84.5
[8], 1000 nM	89.6
[8], 10000 nM	31.2
[9], 10 nM	122
[9], 1000 nM	86.6
[9], 10000 nM	19.6
[10], 10 nM	124
[10], 1000 nM	82.4
[10], 10000 nM	56.8
[11], 3 nM	103
[11], 30 nM	110
[11], 100 nM	102
[12], 10 nM	100
[12], 1000 nM	97.6
[12], 10000 nM	25
[13], 10 nM	99.2
[13], 1000 nM	78.7
[13], 10000 nM	37.7
[14], 10 nM	115
[14], 1000 nM	96
[14], 10000 nM	52.8
[15], 3 nM	132
[15], 30 nM	130
[15], 100 nM	110
[16], 10 nM	102
[16], 1000 nM	79.8
[16], 10000 nM	22.9
[17], 10 nM	110
[17], 1000 nM	93.6
[17], 10000 nM	19.9
[18], 10 nM	108
[18], 1000 nM	45.2
[18], 10000 nM	2.8
[19], 1 nM	109
[20], 1 nM	97

Details	drug sensitivity score
[21]	7.4
[22]	5.16

CCN(CC)CCCC(C)Nc1c2ccc(Cl)cc2nc2ccc(OC)cc12 (centres undefined) [Mepacrine]
Details	normalised viability [%]
[1], 0.99 nM	113
[1], 10 nM	111
[1], 99 nM	104
[1], 990 nM	41.1
[1], 1000 nM	116
[1], 10000 nM	2.65
[2], 0.99 nM	87
[2], 10 nM	87.2
[2], 99 nM	82.2
[2], 990 nM	37.6
[2], 1000 nM	88.9
[2], 10000 nM	17.8
[3], 0.99 nM	114
[3], 10 nM	102
[3], 99 nM	109
[3], 990 nM	16.3
[3], 1000 nM	89.6
[3], 10000 nM	5.76
[4], 0.297 nM	118
[4], 2.97 nM	110
[4], 3 nM	98.7
[4], 9.9 nM	129
[4], 30 nM	106
[4], 100 nM	102
[5], 0.297 nM	89.1
[5], 2.97 nM	91.4
[5], 3 nM	105
[5], 9.9 nM	96.2
[5], 30 nM	97.8
[5], 100 nM	93.3
[6], 0.297 nM	114
[6], 2.97 nM	95.7
[6], 3 nM	94.3
[6], 9.9 nM	98.9
[6], 30 nM	88.1
[6], 100 nM	105
[7], 0.297 nM	112
[7], 2.97 nM	88
[7], 3 nM	92.6
[7], 9.9 nM	101
[7], 30 nM	89.1
[7], 100 nM	96.9
[8], 0.99 nM	123
[8], 10 nM	93.5
[8], 99 nM	114
[8], 990 nM	45
[8], 1000 nM	96.1
[8], 10000 nM	35.5
[9], 0.99 nM	105
[9], 10 nM	85.5
[9], 99 nM	82.1
[9], 990 nM	67.3
[9], 1000 nM	79.5
[9], 10000 nM	30.9
[10], 0.99 nM	118
[10], 10 nM	108
[10], 99 nM	78.7
[10], 990 nM	15.8
[10], 1000 nM	63.6
[10], 10000 nM	10.7
[11], 0.297 nM	113
[11], 2.97 nM	109
[11], 3 nM	112
[11], 9.9 nM	104
[11], 30 nM	113
[11], 100 nM	116
[12], 0.99 nM	111
[12], 10 nM	107
[12], 99 nM	118
[12], 990 nM	38.5
[12], 1000 nM	122
[12], 10000 nM	21.6
[13], 0.99 nM	89.4
[13], 10 nM	102
[13], 99 nM	81.4
[13], 990 nM	8.45
[13], 1000 nM	65
[13], 10000 nM	7.28
[14], 0.99 nM	109
[14], 10 nM	101
[14], 99 nM	105
[14], 990 nM	33
[14], 1000 nM	81.4
[14], 10000 nM	9.64
[15], 0.297 nM	106
[15], 2.97 nM	107
[15], 3 nM	114
[15], 9.9 nM	100
[15], 30 nM	96.7
[15], 100 nM	102
[16], 0.99 nM	108
[16], 10 nM	104
[16], 99 nM	106
[16], 990 nM	43.4
[16], 1000 nM	94.7
[16], 10000 nM	5.97
[17], 0.99 nM	107
[17], 10 nM	101
[17], 99 nM	94.8
[17], 990 nM	44.5
[17], 1000 nM	100
[17], 10000 nM	20.9
[18], 0.99 nM	100
[18], 10 nM	110
[18], 99 nM	104
[18], 990 nM	27.9
[18], 1000 nM	101
[18], 10000 nM	2.49
[19], 0.099 nM	74.2
[19], 1 nM	113
[20], 0.099 nM	101
[20], 1 nM	94.5

Details	drug sensitivity score
[22]	5.43 and 4.13
